Experimental data as given in US20260199323A1, “LIGAND COMPOUNDS FOR E3 UBIQUITIN LIGASE, PROTEIN DEGRADERS DEVELOPED ON BASIS OF LIGAND COMPOUNDS, AND USES THEREOF” (GLUETACS THERAPEUTICS (SHANGHAI) CO., LTD., priority 2021, published 2026).
Like-named read-outs stand apart in the source and are kept apart here.

What was measured:
[1] = test system: HCC827; experiment: CCK-8 tumor cell proliferation, HCC827; assay type: cell-based, Human; conditions: for IC50: Homo sapiens
[2] = test system: MDA-MB-231; experiment: CCK-8 tumor cell proliferation, MDA-MB-231; assay type: cell-based, Human; parameters: IC50 for inhibiting the proliferation of tumor cells, MDA-MB-231: scale not given here; conditions: for IC50: Homo sapiens, Table 15, ALK inhibitor based, MDA-MB-231, read-out: IC50 inhibiting proliferation of tumor cells, MDA-MB-231
Outline: (§1)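 Viability determined colorimetrically with CCK-8 following compound treatment. Dosing began 24 h post-plating using ten 5-fold dilutions capped at 10 μM; growth-inhibition curves yielded IC50.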

[3] = test system: SR; experiment: CCK-8 tumor cell proliferation, SR; assay type: cell-based, Human; conditions: Homo sapiens; Table 15, ALK inhibitor based; SR; read-out: IC50 inhibiting proliferation of tumor cells, SR
Outline: as §1

[4] = test system: NCI-H1975; experiment: CCK-8 tumor cell proliferation, NCI-H1975; assay type: cell-based, Human; conditions: Homo sapiens; Table 15, ALK inhibitor based; NCI-H1975; read-out: IC50 inhibiting proliferation of tumor cells, NCI-H1975
Method: (§2) The tumor cells used herein were cultured in a cell culture medium listed in table 4 at 37° C. in an incubator with 5% CO2. Prior to experimentation, all cells used were correctly identified by STR profiling, and tested negative for mycoplasma through routine screenings.
(§3) IC50 values of the compounds of the present disclosure (including the compounds in Tables 1 and 3, and compounds of examples) were measured using the Meilun Cell Counting Kit-8 kit from Dalian Meilun Biotech Co., Ltd. Assay details are as follows: tumor cells were seeded in a 96-well plate at a density listed in Table 5. After 24 h, 100 μL of the inoculated cells were treated with 0.5 μL of the compounds of the present disclosure (including the compounds in Tables 1 and 3, and compounds of examples) at 10 different successively decreasing concentrations (starting at the highest concentration of 10 μM; 5-fold serial dilutions). After the cells were treated with the compounds of the present disclosure for a period of time, the cell viability detection reagent was added to the culture medium for cell viability assessment according to the instructions provided with the CCK-8 kit. […] The growth inhibition of the compounds of the present disclosure on cells was plotted by Prism Graphpad software, and the IC50 values of the compounds of the present disclosure were calculated therefrom.

[5] = test system: Mino; experiment: CCK-8 tumor cell proliferation, Mino; assay type: cell-based, Human; conditions: for IC50: Homo sapiens, Table 15, ALK inhibitor based, Mino, read-out: IC50 inhibiting proliferation of tumor cells, Mino
Outline: as §1

[6] = test system: PC-9; experiment: CCK-8 tumor cell proliferation, PC-9; assay type: cell-based, Human; conditions: Homo sapiens
[7] = test system: NCI-H2228; experiment: CCK-8 tumor cell proliferation, NCI-H2228; conditions: Homo sapiens, Table 15, ALK inhibitor based, read-out: IC50 inhibiting proliferation of tumor cells, NCI-H2228
Method: as §2, §3

[8] = test system: THP-1; experiment: CCK-8 tumor cell proliferation, THP-1; assay type: cell-based, Human; conditions: 72 h
Method: as §2, §3

[9] = test system: MM.1R; experiment: CCK-8 tumor cell proliferation, MM.1R; assay type: cell-based; conditions: Table 23, compared to Comparative Example compounds, read-out: Inhibitory activity (IC50, nM) against tumor cell proliferation, MM.1R
Outline: as §1

[10] = test system: Jurkat; experiment: CCK-8 tumor cell proliferation, Jurkat; assay type: cell-based, Human; conditions: Homo sapiens, Table 23, compared to Comparative Example compounds, read-out: Inhibitory activity (IC50, nM) against tumor cell proliferation, Jurkat
Outline: as §1

[11] = test system: CAL-62; experiment: CCK-8 tumor cell proliferation, CAL-62; assay type: cell-based, Human; conditions: Homo sapiens; Table 23, compared to Comparative Example compounds; CAL-62; read-out: Inhibitory activity (IC50, nM) against tumor cell proliferation, CAL-62
Outline: as §1

[12] = test system: SU-DHL-6; experiment: CCK-8 tumor cell proliferation, SU-DHL-6; assay type: cell-based, Human; conditions: Table 8, designed based on ER inhibitors; 72 h
Method: as §2, §3

[13] = test system: CCRF-CEM; experiment: CCK-8 tumor cell proliferation, CCRF-CEM; assay type: cell-based, Human; parameters: IC50 for inhibiting the proliferation of tumor cells, CCRF-CEM: scale not given here; conditions: 96 h
Outline: as §1

[14] = test system: Hep3B2.7-1; experiment: CCK-8 tumor cell proliferation, Hep3B2.7-1; assay type: cell-based, Human; conditions: Table 8, designed based on ER inhibitors; 96 h
Outline: as §1

[15] = test system: Kasumi-1; experiment: CCK-8 tumor cell proliferation, Kasumi-1; assay type: cell-based, Human; conditions: Table 8, designed based on ER inhibitors; 72 h
Outline: as §1

[16] = test system: MM.1S; experiment: CCK-8 tumor cell proliferation, MM.1S; assay type: cell-based; conditions: Table 8, designed based on ER inhibitors; 72 h
Outline: as §1

[17] = test system: T47D; experiment: CCK-8 tumor cell proliferation, T47D; assay type: cell-based, Human; conditions: Table 8, designed based on ER inhibitors; 96 h
Method: as §2, §3

[18] = test system: SW620; experiment: CCK-8 tumor cell proliferation, SW620; assay type: cell-based, Human; conditions: Table 8, designed based on ER inhibitors; 96 h
Outline: as §1

[19] = test system: MV-4-11; experiment: CCK-8 tumor cell proliferation, MV-4-11; assay type: cell-based, Human; conditions: Homo sapiens, MV4-11; Table 15, ALK inhibitor based; MV-4-11; read-out: IC50 inhibiting proliferation of tumor cells, MV-4-11
Outline: as §1

[20] = test system: Vcap; experiment: CCK-8 tumor cell proliferation, Vcap; assay type: cell-based, Human; conditions: Table 11, designed based on EGFR inhibitors; 96 h
Outline: as §1

[21] = Table 15, ALK inhibitor based, HCC827, read-out: IC50 inhibiting proliferation of tumor cells, HCC827
[22] = Table 15, ALK inhibitor based, PC-9, read-out: IC50 inhibiting proliferation of tumor cells, PC-9
[23] = Table 8, designed based on ER inhibitors, 96 h
[24] = Table 11, designed based on EGFR inhibitors

SMILES	IC50 [2]	IC50 [3]	IC50 [4]	IC50 [5]	IC50 [6, 22]	IC50 [7]	also measured
CCc1cc2c(cc1N1CCC(N3CCN(Cc4ccc5c(c4)CN(C4CCC(=O)NC4=O)C5=O)CC3)CC1)C(C)(C)c1[nH]c3cc(C#N)ccc3c1C2=O (centres unmarked) [GT-02972, 8-(4-(4-((2-(2,6-dioxopiperidin-3-yl)-1-oxoisoindolin-5-yl)methyl)piperazin-1-yl)piperidin-1-yl)-9-ethyl-6,6-dimethyl-11-oxo-6,11-dihydro-5H-benzo[b]carbazole-3-carbonitrile]	500 to 1000 nM	< 50 nM	500 to 1000 nM	500 to 1000 nM	500 to 1000 nM	500 to 1000 nM	IC50 [1, 21]: 1000 to 5000 nM
NC(=O)c1ccc(N2CCN(Cc3ccc4c(c3)CN(C3CCC(=O)NC3=O)C4=O)CC2)nc1-c1ccc(Oc2ccccc2)cc1 (centres unmarked) [GT-03636, 6-(4-((2-(2,6-dioxopiperidin-3-yl)-1-oxoisoindolin-5-yl)methyl)piperazin-1-yl)-2-(4-phenoxyphenyl)nicotinamide]	–	–	–	–	–	–	IC50 for inhibiting the proliferation of tumor cells, THP-1 ([8]; Table 7, designed based on BTK inhibitors): A+
O=C1CCC(N2Cc3cc(CN4CCN(c5ccc(C(=C(CCCl)c6ccc(O)cc6)c6ccc(O)cc6)cc5)CC4)ccc3C2=O)C(=O)N1 (centres unmarked) [GT-03638, 3-(5-((4-(4-(4-chloro-1,2-bis(4-hydroxyphenyl)but-1-en-1-yl)phenyl)piperazin-1-yl)methyl)-1-oxoisoindolin-2-yl)piperidine-2,6-dione]	–	–	–	–	–	–	IC50 for inhibiting the proliferation of tumor cells, SU-DHL-6 [12]: A+; IC50 for inhibiting the proliferation of tumor cells, CCRF-CEM ([13]; Table 8, designed based on ER inhibitors): A+; IC50 for inhibiting the proliferation of tumor cells, HCC827 [1, 23]: A+; IC50 for inhibiting the proliferation of tumor cells, Hep3B2.7-1 [14]: A+; IC50 for inhibiting the proliferation of tumor cells, Kasumi-1 [15]: A+; IC50 for inhibiting the proliferation of tumor cells, MDA-MB-231 [2, 23]: A+; IC50 for inhibiting the proliferation of tumor cells, MM.1S [16]: A+; IC50 for inhibiting the proliferation of tumor cells, T47D [17]: A+; IC50 for inhibiting the proliferation of tumor cells, Mino ([5]; Table 8, designed based on ER inhibitors, 72 h): A+; IC50 for inhibiting the proliferation of tumor cells, SW620 [18]: A+
Cc1cc(Nc2ncc(Cl)c(Nc3ccccc3S(=O)(=O)C(C)C)n2)c(OC(C)C)cc1C1CCN(Cc2ccc3c(c2)CN(C2CCC(=O)NC2=O)C3=O)CC1 (centres unmarked) [GT-02973, 3-(5-((4-(4-((5-chloro-4-((2-(isopropylsulfonyl)phenyl)amino)pyrimidin-2-yl)amino)-5-isopropoxy-2-methylphenyl)piperidin-1-yl)methyl)-1-oxoisoindolin-2-yl)piperidine-2,6-dione]	500 to 1000 nM	< 50 nM	–	–	500 to 1000 nM	100 to 500 nM	–
COc1cc(N2CCC(N3CCN(C)CC3)CC2)ccc1Nc1ncc(Cl)c(Nc2ccccc2P(C)(C)=O)n1 [brigatinib, reference compound]	500 to 1000 nM	< 50 nM	500 to 1000 nM	5000 to 10000 nM	–	100 to 500 nM	IC50 ([1]; HCC827, read-out: IC50 inhibiting proliferation of tumor cells, HCC827): 100 to 500 nM; IC50 ([6]; PC-9, read-out: IC50 inhibiting proliferation of tumor cells, PC-9): 1000 to 5000 nM
COc1cc(N2CCC(NCc3ccc4c(c3)CN(C3CCC(=O)NC3=O)C4=O)CC2)ccc1Nc1ncc(Cl)c(Nc2ccccc2P(C)(C)=O)n1 (centres unmarked) [GT-03015, 3-(5-(((1-(4-((5-chloro-4-((2-(dimethylphosphoryl)phenyl)amino)pyrimidin-2-yl)amino)-3-methoxyphenyl)piperidin-4-yl)amino)methyl)-1-oxoisoindolin-2-yl)piperidine-2,6-dione]	–	–	50 to 100 nM	–	–	100 to 500 nM	–
O=C1CCC(N2Cc3cc(CN4CCC(N5CCN(c6ccc(-c7cc(F)c8c(c7)C(=O)N(C(C(=O)Nc7nccs7)c7ncn9c7CCC9)C8)cc6)CC5)C(F)(F)C4)ccc3C2=O)C(=O)N1 (centres unmarked) [GT-04459, 2-(6,7-dihydro-5H-pyrrolo[1,2-c]imidazol-1-yl)-2-(6-(4-(4-(1-((2-(2,6-dioxopiperidin-3-yl)-1-oxoisoindolin-5-yl)methyl)-3,3-difluoropiperidin-4-yl)piperazin-1-yl)phenyl)-4-fluoro-1-oxoisoindolin-2-yl)-N-(thiazol-2-yl)acetamide]	–	–	–	–	–	–	IC50 for inhibiting the proliferation of tumor cells, CCRF-CEM [13, 24]: A+; IC50 for inhibiting the proliferation of tumor cells, THP-1 [8, 24]: A+; IC50 for inhibiting the proliferation of tumor cells, Vcap [20]: A+
COc1cc(N2CCC(N3CCN(Cc4ccc5c(c4)CN(C4CCC(=O)NC4=O)C5=O)CC3)CC2)ccc1Nc1ncc(Cl)c(Nc2ccccc2P(C)(C)=O)n1 (centres unmarked) [GT-02811, 3-(5-((4-(1-(4-((5-chloro-4-((2-(dimethylphosphoryl)phenyl)amino)pyrimidin-2-yl)amino)-3-methoxyphenyl)piperidin-4-yl)piperazin-1-yl)methyl)-1-oxoisoindolin-2-yl)piperidine-2,6-dione]	–	–	100 to 500 nM	–	–	1000 to 5000 nM	–

Now from value to compound, other results behind:

IC50 [2]	IC50 [3]	IC50 [4]	IC50 [5]	IC50 [6, 22]	IC50 [7]	SMILES	also measured
1000 to 5000 nM	< 50 nM	–	–	1000 to 5000 nM	1000 to 5000 nM	CCc1cc2c(cc1N1CCN(Cc3ccc4c(c3)CN(C3CCC(=O)NC3=O)C4=O)CC1)C(C)(C)c1[nH]c3cc(C#N)ccc3c1C2=O (centres unmarked) [GT-03409, 8-(4-((2-(2,6-dioxopiperidin-3-yl)-1-oxoisoindolin-5-yl)methyl)piperazin-1-yl)-9-ethyl-6,6-dimethyl-11-oxo-6,11-dihydro-5H-benzo[b]carbazole-3-carbonitrile]	IC50 [1, 21]: 1000 to 5000 nM
50 to 100 nM	< 50 nM	< 50 nM	1000 to 5000 nM	50 to 100 nM	50 to 100 nM	COc1cc(N2CCC(N(C)Cc3ccc4c(c3)CN(C3CCC(=O)NC3=O)C4=O)CC2)ccc1Nc1ncc(Cl)c(Nc2ccccc2P(C)(C)=O)n1 (centres unmarked) [GT-03319, 3-(5-(((1-(4-((5-chloro-4-((2-(dimethylphosphoryl)phenyl)amino)pyrimidin-2-yl)amino)-3-methoxyphenyl)piperidin-4-yl)(methyl)amino)methyl)-1-oxoisoindolin-2-yl)piperidine-2,6-dione]	IC50 [1, 21]: 50 to 100 nM; IC50 [9]: 100 to 500 nM; IC50 [10]: 1000 to 5000 nM; IC50 [11]: < 50 nM
–	< 50 nM	50 to 100 nM	100 to 500 nM	–	100 to 500 nM	CCc1cc2c(cc1N1CCC(N3CCN(Cc4cc(F)c5c(c4)CN(C4CCC(=O)NC4=O)C5=O)CC3)CC1)C(C)(C)c1[nH]c3cc(C#N)ccc3c1C2=O (centres unmarked) [GT-03760, 8-(4-(4-((2-(2,6-dioxopiperidin-3-yl)-7-fluoro-1-oxoisoindolin-5-yl)methyl)piperazin-1-yl)piperidin-1-yl)-9-ethyl-6,6-dimethyl-11-oxo-6,11-dihydro-5H-benzo[b]carbazole-3-carbonitrile]	IC50 [19]: 500 to 1000 nM
1000 to 5000 nM	< 50 nM	1000 to 5000 nM	5000 to 10000 nM	100 to 500 nM	1000 to 5000 nM	CCc1cc2c(cc1N1CCC(N3CCOCC3)CC1)C(C)(C)c1[nH]c3cc(C#N)ccc3c1C2=O [alectinib, reference compound]	–
